How the values were obtained:
[1] = biological target: T1, Androgen receptor (Rattus norvegicus, UniProt P15207); assay type: functional
T1 sequence (P15207 whole entry): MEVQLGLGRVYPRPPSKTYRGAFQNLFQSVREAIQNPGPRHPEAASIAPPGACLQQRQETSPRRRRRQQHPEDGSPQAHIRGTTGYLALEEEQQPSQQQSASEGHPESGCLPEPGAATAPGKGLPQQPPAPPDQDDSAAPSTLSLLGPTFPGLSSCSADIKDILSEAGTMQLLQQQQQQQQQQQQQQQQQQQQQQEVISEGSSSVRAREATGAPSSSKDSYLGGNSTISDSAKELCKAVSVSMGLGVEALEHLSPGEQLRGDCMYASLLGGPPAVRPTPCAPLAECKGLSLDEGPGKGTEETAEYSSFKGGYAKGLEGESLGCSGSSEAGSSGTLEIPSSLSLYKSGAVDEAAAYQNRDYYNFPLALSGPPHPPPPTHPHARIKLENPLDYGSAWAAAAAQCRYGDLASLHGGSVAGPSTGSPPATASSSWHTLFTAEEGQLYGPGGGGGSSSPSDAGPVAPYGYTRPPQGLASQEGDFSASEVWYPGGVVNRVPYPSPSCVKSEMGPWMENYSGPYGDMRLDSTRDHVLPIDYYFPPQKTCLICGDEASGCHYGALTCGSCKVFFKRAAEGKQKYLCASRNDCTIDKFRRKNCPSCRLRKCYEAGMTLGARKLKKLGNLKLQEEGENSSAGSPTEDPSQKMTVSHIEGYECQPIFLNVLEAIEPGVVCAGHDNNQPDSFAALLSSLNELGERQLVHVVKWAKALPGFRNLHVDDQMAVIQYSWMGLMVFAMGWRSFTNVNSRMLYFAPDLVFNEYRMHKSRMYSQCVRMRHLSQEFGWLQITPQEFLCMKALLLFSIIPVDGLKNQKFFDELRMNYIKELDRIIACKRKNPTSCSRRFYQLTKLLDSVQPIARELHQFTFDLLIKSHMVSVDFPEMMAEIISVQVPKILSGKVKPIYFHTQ

[2] = biological target: 5-hydroxytryptamine receptor 2B (Homo sapiens, UniProt P41595)
Sequence of 5-hydroxytryptamine receptor 2B (P41595 whole entry): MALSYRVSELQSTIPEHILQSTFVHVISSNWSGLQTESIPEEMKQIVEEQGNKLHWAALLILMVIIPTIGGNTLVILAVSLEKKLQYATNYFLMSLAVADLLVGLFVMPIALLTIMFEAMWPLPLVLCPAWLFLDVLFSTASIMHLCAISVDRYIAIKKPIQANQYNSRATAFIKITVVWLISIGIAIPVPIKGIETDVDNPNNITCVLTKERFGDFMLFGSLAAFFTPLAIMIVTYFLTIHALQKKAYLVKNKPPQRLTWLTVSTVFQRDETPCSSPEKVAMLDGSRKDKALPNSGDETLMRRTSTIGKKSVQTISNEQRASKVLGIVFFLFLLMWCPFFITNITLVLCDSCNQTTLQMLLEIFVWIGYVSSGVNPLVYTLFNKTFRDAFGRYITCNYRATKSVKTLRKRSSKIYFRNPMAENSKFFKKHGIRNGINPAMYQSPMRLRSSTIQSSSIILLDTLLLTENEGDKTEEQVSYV

[3] = biological target: Rod cGMP-specific 3',5'-cyclic phosphodiesterase subunit alpha (Homo sapiens, UniProt P16499); assay type: functional
Sequence of Rod cGMP-specific 3',5'-cyclic phosphodiesterase subunit alpha (P16499 whole entry): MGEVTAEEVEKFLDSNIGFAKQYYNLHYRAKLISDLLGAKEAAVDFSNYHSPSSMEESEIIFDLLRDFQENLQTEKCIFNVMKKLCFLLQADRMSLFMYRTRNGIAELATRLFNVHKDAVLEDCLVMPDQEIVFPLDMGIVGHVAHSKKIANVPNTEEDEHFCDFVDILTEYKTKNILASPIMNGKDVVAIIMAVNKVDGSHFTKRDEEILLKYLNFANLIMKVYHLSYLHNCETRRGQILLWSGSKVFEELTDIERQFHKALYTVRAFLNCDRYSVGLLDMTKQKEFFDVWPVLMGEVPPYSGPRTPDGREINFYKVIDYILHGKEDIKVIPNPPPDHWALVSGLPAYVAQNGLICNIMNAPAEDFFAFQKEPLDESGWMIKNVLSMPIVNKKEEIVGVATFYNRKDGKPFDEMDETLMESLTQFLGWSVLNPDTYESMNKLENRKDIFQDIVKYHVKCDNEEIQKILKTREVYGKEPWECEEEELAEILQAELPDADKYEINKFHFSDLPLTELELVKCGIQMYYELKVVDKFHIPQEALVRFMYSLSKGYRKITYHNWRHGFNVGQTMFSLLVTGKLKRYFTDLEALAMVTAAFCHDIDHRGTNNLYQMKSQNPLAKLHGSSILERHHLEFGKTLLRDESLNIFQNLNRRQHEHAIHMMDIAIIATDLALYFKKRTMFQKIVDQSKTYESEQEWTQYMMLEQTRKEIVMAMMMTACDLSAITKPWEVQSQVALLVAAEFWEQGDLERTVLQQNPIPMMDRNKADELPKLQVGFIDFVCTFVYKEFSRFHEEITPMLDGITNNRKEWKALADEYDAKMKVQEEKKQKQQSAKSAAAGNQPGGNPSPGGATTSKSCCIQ
Further: assay procedure not described here.

## CN(C)CC/C=C1\c2ccccc2CSc2ccccc21 [DOTHIEPIN]
[1]
  AC50: > 30 µM

## C=CCN1C[C@H](C(=O)N(CCCN(C)C)C(=O)NCC)C[C@@H]2c3cccc4[nH]cc(c34)C[C@H]21 [CABERGOLINE]
[2]
  AC50: 0.0148 µM

## CCOc1ccccc1OCC1CNCCO1 (stereo not drawn) [VILOXAZINE]
[3]
  AC50: > 10 µM
